# Values quoted from earlier work as cited in patent publication US20070135423A1, “E-fluoro-4-(pyridin-2-yl)-piperidine-1-carboxamide derivatives and related compounds which modulate the function of the vanilloid-1 receptor (vr1) for the treatment of pain” (priority 2003, published 2007).
# Biological target: VR1 (Rattus norvegicus, UniProt O35433)
# Settings: Wahl et al., Mol. Pharmacol, 59:9, 2001
# Sequence of VR1 (O35433 whole entry): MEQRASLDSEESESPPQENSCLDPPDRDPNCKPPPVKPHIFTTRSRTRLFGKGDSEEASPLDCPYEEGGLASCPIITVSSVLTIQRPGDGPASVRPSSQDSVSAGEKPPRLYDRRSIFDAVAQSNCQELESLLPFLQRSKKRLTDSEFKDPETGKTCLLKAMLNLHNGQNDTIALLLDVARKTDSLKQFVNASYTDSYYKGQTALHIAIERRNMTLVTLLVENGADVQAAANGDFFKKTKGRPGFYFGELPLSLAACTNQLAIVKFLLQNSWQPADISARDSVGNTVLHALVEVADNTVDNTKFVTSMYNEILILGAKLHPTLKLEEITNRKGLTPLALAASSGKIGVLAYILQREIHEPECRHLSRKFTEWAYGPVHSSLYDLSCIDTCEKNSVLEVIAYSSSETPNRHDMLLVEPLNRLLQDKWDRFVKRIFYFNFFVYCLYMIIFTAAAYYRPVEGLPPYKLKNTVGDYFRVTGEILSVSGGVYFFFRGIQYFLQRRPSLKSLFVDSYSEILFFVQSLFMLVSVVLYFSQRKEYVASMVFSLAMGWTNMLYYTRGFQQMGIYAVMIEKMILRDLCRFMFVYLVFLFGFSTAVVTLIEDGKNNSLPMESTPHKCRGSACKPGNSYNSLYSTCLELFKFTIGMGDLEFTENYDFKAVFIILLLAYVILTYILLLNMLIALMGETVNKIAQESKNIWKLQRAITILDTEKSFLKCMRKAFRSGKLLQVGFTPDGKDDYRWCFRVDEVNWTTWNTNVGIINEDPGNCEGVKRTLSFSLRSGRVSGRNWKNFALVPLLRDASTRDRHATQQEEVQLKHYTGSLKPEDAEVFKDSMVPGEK
compound,measurement,value
C=C(C)[C@]12C[C@@H](C)[C@@]34O[C@](Cc5ccccc5)(O[C@@H]1[C@@H]3C=C(COC(=O)Cc1cc(I)c(O)c(OC)c1)C[C@]1(O)C(=O)C(C)=C[C@@H]41)O2 [Iodo-resiniferatoxin],VR1 antagonist potency (in words),nanomolar antagonist
